Test system: porcine liver esterase (PLE)
Experiment: fluorogenic hydrolysis, Michaelis-Menten fit
Type: biochemical, Sus scrofa
Settings: HEPES pH 7.4, 23 ± 2 °C, DMSO up to 1.5% v/v

| Molecule | Km (two ester groups per molecule) [µM] | Km [µM] |
| --- | --- | --- |
| CC(=O)Oc1ccc2c(c1)Oc1cc(OC(C)=O)ccc1C21OC(=O)c2ccccc21 [2a, fluorescein diacetate] | 11 | – |
| CC(=O)OCOc1ccc2nc3ccc(=O)cc-3oc2c1 [compound 9, Resorufin acetoxymethyl ether] | – | 21 |
| CC(=O)Oc1ccc2nc3ccc(=O)cc-3oc2c1 [compound 10, resorufin acetate] | – | 16 |
| Tokyo Green acetate [compound 7] | – | 12 |
| Tokyo green acetoxymethyl ether [compound 6] | – | 13 |
